US20200386744A1, “NOVEL SCREENING METHOD FOR TGF-BETA INHIBITOR” (The Doshisha, priority 2017, published 2020)
Structures can show the parent of a compound that is named as a salt. Where two headings read alike, the source gives them in different places.

Columns and labels:
[1] = system: immortalized Fuchs' endothelial corneal dystrophy cells (iFECD); assay: Cell viability (CellTiter-Glo Luminescent Cell Viability Assay) in iFECD, secondary screening; format: cell-based, human; settings: agent 10 μM, absence of TGF-β; for Secondary screening Viable cell number (%): 28 hours, n=2, vs candidate compound non-contacted group
Procedure: In one embodiment, step (b) comprises measurement of cell viability. […] The cell viability is measured in the absence of TGF-β. […] The threshold value of the cell viability may be about 80%, about 85%, about 90%, about 95%, about 98%, about 99%, about 100%. […] Thus, a drug can be accurately selected by measuring cell number in addition to measuring caspase activity. Although the compounds shown in Table 2 appeared to be suppressing caspase activity, the compounds had strong toxicity, wherein cell viability went below 90%, and were thereby removed in the secondary screening.
Cell viability is calculated as an indicator of toxicity with n=2 in CellTiter-Glo® Luminescent Cell Viability Assay (Promega catalogue number: G7570). The cell viability was measured after culturing the cells in Dulbecco's Modified Eagle Medium (DMEM)+2% fetal bovine serum (FBS)+1% penicillin/streptomycin (P/S) for 28 hours. The cell viability was measured in the absence of TGF-β. When the cell viability was below 90%, the cells were removed from ranking.

[2] = system: immortalized Fuchs' endothelial corneal dystrophy cells (iFECD); assay: Caspase 3/7 activity (Caspase-Glo 3/7 Assay) in iFECD under TGF-β2 stimulation, primary and secondary screening; format: cell-based, human; settings: for activity at 10 µM: Homo sapiens
Procedure: 7×10^3 immortalized Fuchs' endothelial corneal dystrophy cells were seeded on a 96-well plate and were cultured for 24 hours under the condition of 5% CO2 at 37° C. Dulbecco's Modified Eagle Medium (DMEM) (nacalai tesque, 26252-94)+10% FBS (Biological Industries/04-001-1A)+1% penicillin-streptomycin (nacalai tesque, 26252-94) was used as the medium. Next, TGF-β2 (manufacturer: R&D Systems, Inc., distributor: Wako Pure Chemical Industries, Ltd./manufacturer codes 302-B2-002, 302-B2-010, distributor codes: 553-62881, 559-62883) (5 ng/mL) alone, or both TGF-β2 (5 ng/mL) and each agent of SCREEN-WELL® FDA Approved Drug Library V2, Japan version (10 μM) were added. After 28 hours under the condition of 5% CO2 at 37° C., cell morphology was observed using a phase difference microscope. Caspase 3/7 activity was then measured using Caspase-Glo 3/7 Assay (Promega, #G8091). DMEM+2% FBS+1% P/S was used as the medium. Caspase 3/7 activity and cell viability in this example were measured using Veritas™ Microplate Luminometer. Such a device enables many samples to be simultaneously measured.
The control group was supplemented with a solvent of each reagent, i.e., DMSO (Dimethyl Sulfoxide, Sterile-filtered) (nacalai tesque, 13408-64). Further, Z-VD-FMK (isomer mixture) (Wako Pure Chemical Industries, Ltd./262-02061) (10 μM), which is a caspase inhibitor, was used as the positive control. In the primary screening, measurement of Caspase 3/7 activity was carried out with n=2. […] Caspase activity was measured after being cultured in Dulbecco's Modified Eagle Medium (DMEM)+2% fetal bovine serum (FBS)+1% penicillin/streptomycin (P/S) for 28 hours.
Measurement was carried out with n=2 as the primary screening and a TGF-β2 (5 ng/mL) supplemented group was set as 100%. […] (1) and (2) of the control group, TGF-β2 (5 ng/mL) supplemented group, TGF-β2 (5 ng/mL)+Z-VD-FMK supplemented group (10 μM) are n=5 in total.
Evaluation of Caspase 3/7 activity was carried out with n=5 in the secondary screening.

[3] = 28 h, secondary screening Caspase 3/7 activity divided by cell viability, read-out: Caspase 3/7 activity/Viable cell number (%)
[4] = TGF-β2 5 ng/mL + agent 10 μM, 28 hours, n=2, TGF-β2 supplemented group set as 100%, read-out: Primary screening Caspase 3/7 activity (%)
[5] = TGF-β2 5 ng/mL + agent 10 μM, 28 hours, n=5, vs candidate compound non-contacted group, read-out: Secondary screening Caspase 3/7 activity (%)

| Structure (SMILES) | Cell viability class mark (before Viable cell number) [1] | Secondary screening Viable cell number (%) [1] [%] | Primary screening Caspase 3/7 activity (%) ([2]; TGF-β2 5 ng/mL + agent 10 μM, 28 hours, n=2, TGF-β2 supplemented group set as 100%) | Secondary screening Caspase 3/7 activity (%) ([2]; TGF-β2 5 ng/mL + agent 10 μM, 28 hours, n=5, vs candidate compound non-contacted group) | Caspase 3/7 activity/Viable cell number (%) ([2]; secondary screening Caspase 3/7 activity divided by cell viability) | activity at 10 µM [2, 3] [%] | activity at 10 µM [2, 4] [%] | activity at 10 µM [2, 5] [%] |
| --- | --- | --- | --- | --- | --- | --- | --- | --- |
| CCCC(=O)Nc1ccc(OCC(O)CNC(C)C)c(C(C)=O)c1.Cl (stereo not shown) [Acebutolol•HCl] | ∘ (90% or more cell viability) | 99.77 | 74.30 | 88.05 | 88.25 | – | – | – |
| CN1CC2c3ccccc3Oc3ccc(Cl)cc3C2C1 (stereo not shown) [Asenapine Maleate] | ∘ (90% or more cell viability) | 101.64 | – | – | – | 87.4 | 72.8 | 88.8 |
| COc1ccccc1OCCNCC(O)COc1cccc2[nH]c3ccccc3c12 (stereo not shown) [Carvedilol] | x (less than 90% cell viability) | 89.1 | – | – | – | 71.9 | 50.3 | 64.1 |
| O=C(O)c1ccc(-n2nc(-c3ccccc3O)nc2-c2ccccc2O)cc1 [Deferasirox] | x (less than 90% cell viability) | 56.04 | – | – | – | 68.9 | 50 | 38.6 |
| N#Cc1ccc(C(c2ccc(C#N)cc2)n2cncn2)cc1 [Letrozole] | ∘ (90% or more cell viability) | 101.3 | – | – | – | 102 | 71.2 | 104 |
| Cc1[nH]c(=O)c(C#N)cc1-c1ccncc1 [Milrinone] | ∘ (90% or more cell viability) | 99.67 | – | – | – | 95.2 | 62.5 | 94.9 |
| COc1c(C)c2c(c(O)c1C/C=C(\C)CCC(=O)OCCN1CCOCC1)C(=O)OC2 [Mycophenolate Mofetil] | x (less than 90% cell viability) | 67.7 | – | – | – | 70.4 | 46.4 | 47.6 |
| CC(=O)Oc1ccccc1C(=O)Nc1ncc([N+](=O)[O-])s1 [Nitazoxanide] | x (less than 90% cell viability) | 87.81 | – | – | – | 49.3 | 36.5 | 43.3 |
| CC[C@@H]1/C=C(\C)C[C@H](C)C[C@H](OC)[C@H]2O[C@@](O)(C(=O)C(=O)N3CCCC[C@H]3C(=O)O[C@H](/C(C)=C/[C@@H]3CC[C@H](Cl)[C@H](OC)C3)[C@H](C)[C@@H](O)CC1=O)[C@H](C)C[C@@H]2OC [Pimecrolimus] | x (less than 90% cell viability) | 84.64 | – | – | – | 62.6 | 70.1 | 53 |
| COc1cc(NC(C)CCCN)c2ncccc2c1 (stereo not shown) [Primaquine Phosphate] | ∘ (90% or more cell viability) | 99.7 | – | – | – | – | – | – |
| CN(C)[C@@H]1C(O)=C(C(N)=O)C(=O)[C@@]2(O)C(O)=C3C(=O)c4c(O)cccc4[C@@](C)(O)[C@H]3C[C@@H]12 [Tetracycline] | ∘ (90% or more cell viability) | 99.31 | – | – | – | 94.3 | 60.1 | 93.7 |
